Data reported in patent US20120114706A1, “Endorphin Therapy Compositions and Methods of Use Thereof” (priority 2008, published 2012).
“Also recorded” adds a separate entry of the source.

What was measured:
MADB106 cells = experiment: Pharmacologic modification of autonomic influence on immune system and lung metastasis; format: in vivo, rat; details: for PBMC NK cell activity / macrophage migration activity: 24 hours after MADB106 inoculation, naloxone 10, MP/MET 0.8, MLA 2.5 mg/kg or saline; for effect on β-EP elimination of tumor cell lung retention: β-EP transplanted Fischer rats, naloxone 10, MP/MET 0.8, MLA 2.5 mg/kg for 8 days
Method: 48 β-EP implanted (SC) male Fischer rats and 48 control (C) male Fischer rats were divided into 8 groups, treated with saline, Naloxone (10 mg/kg body weight), Metaproterenol (MP, 0.8 mg/kg body weight), or Methyllycaconitine (MLA, 2.5 mg/kg body weight), respectively. Animals were treated with drugs for 8 days. In the second day of drug injection, animals were inoculated with MADB106 cells (100,000/0.2 ml/rat). 24 hours after tumor cell inoculation, blood was collected by orbital puncture. Plasma was collected, and PBMCs were separated for migration assay and NK cytolytic assay. 7 days after tumor inoculation, blood was taken again by orbital puncture. Plasma was collected, and PBMCs were separated for migration assay and T cell cytolytic assay. After 6 weeks, animals were sacrificed, and brains, spleens and blood were frozen. Lungs were fixed in formalin and processed to H&E staining. […] However, 7 days after tumor inoculation, there isn't a clear pattern of T cell cytolytic activity and macrophage migration activity between groups (FIGS. 30B and 30D).
It was hypothesized that the beneficial effect of BEP neuron transplants on immune function is regulated through autonomic nervous system, and that central BEP modulate peripheral immune function by inhibiting the sympathetic activity and activating the parasympathetic activity. Metaproterenol (MET) is an agonist for β-receptors, which are a class of G protein-coupled receptors that are targets of the catecholamines, especially norepinephrine and epinephrine (Dokur et al. (2004) J Neuroimmunol 5:148-57; Page et al. (2008) J Neuroimmunol 193:113-9). Methyllycaconitine (MLA) is a selective antagonist of α7 nicotine acetylcholine receptor (α7 nAChR; Wu et al. (2011) Clin Cancer Res 17:3533-41). By injecting MET and MLA i.p., the stimulation of sympathetic nerves and inhibition of parasympathetic nerves was mimicked. Naloxone, an opiate receptor antagonist, was used to test whether BEP neuronal effects is acted via opiodergic receptor (Boyadjieva et al. (2006) Alcohol Clin Exp Res 30:1761-7). Forty-eight BEP neuron-transplanted Fischer rats and 48 control rats were divided into 8 groups and treated with saline, naloxone (10 mg/kg body weight), MET (0.8 mg/kg body weight), or MLA (2.5 mg/kg body weight) for 8 days (the doses used for these drugs are recognized as effective biological doses). A day after the first injection of these agents, animals were inoculated with MADB106 cells (100,000/0.2 mL/rat). Twenty-four hours after tumor cell inoculation, blood was collected by orbital puncture. Plasma was collected, and peripheral blood mononuclear cells (PBMC) were separated for migration assay and NK cytolytic assay. These animals continued receiving the blocker treatments for 7 days. After 4 weeks they were sacrificed, their lungs were fixed in formalin and processed to H&E staining for determination of cancer pathology. Brain tissues were processed for verification of the site and viability of BEP cell transplantation.

[1] = system: differentiated BEP neurons; experiment: PGE1-induced BEP release and POMC expression of differentiated neurons; format: cell-based, rat; details: PGE1 10 μM
Method: Enriched hypothalamic neurons were maintained in HDMEM, containing 10% FBS, for 3 weeks. Each week, cells were trypsinized and cultured. By the beginning of the third week, many spheres started to develop. These spheres were separated and dissociated into single cells by using trypsin/EDTA (Sigma) solution. They were then cultured in suspension or in poly-L-ornithine-coated 24-well plates (20,000 cells/well) in stem cell medium (DME F-12, […] (LIF), 0.1 μg/ml; L-glutamine, 10 mM; rat bFGF, 20 ng/ml; Mem amino acids solution, MAA, 0.5%; all of the chemicals were from Sigma except that bFGF was obtained from R&D Systems, Minneapolis, Minn.). Cells were cultured for 2 weeks, during which they grew and developed secondary spheres. Some of these cultures were used for immunocytochemical localization of nestin staining to determine whether they were neurospheres. These neurospheres were maintained in cultures for several months by regularly changing the medium and by splitting cells. The secondary spheres were re-suspended and cultured in poly-L-ornithine-coated 24-well plates (20,000/well; for physiological studies) or in poly-L-ornithine-coated 8-well permanox slides (1000 cells/slide; NaIg Nunc International Corp., IL; for histochemical studies). The differentiation experiments were performed by treating these cells for 1 week with PACAP (1-10 μM; SynPep) and dbcAMP (1-10 μM; Sigma) or a combination of both, and then in defined cell culture medium without the drugs for 1 week. At day 3, day 7 and day 14 the immunocytochemical, biochemical and/or real-time RT-PCR analyses were performed.
The immunoreactive β-endorphin levels in culture medium samples were measured by a radioimmunoassay system (De et al. (1994) J. Biol. Chem., 269:26697-26705). All the samples were dried and reconstituted in assay buffer and measured in duplicate in a single assay. The minimum amount of β-endorphin detectable was 3 pg/tube.
Expression levels of POMC mRNA in NSCs and differentiated cells were measured by a quantitative real-time RT-PCR (TaqMan assay) on an ABI PRISM 7700 Sequence Detector (PerkinElmer Applied Biosystems, Foster City, Calif.) as described previously (Chen et al. (2004) J. Neurochem., 88:1547-1554). […] The expression of POMC mRNA was detected using a POMC gene-specific primer pair and probe (TaqMan Gene Expression Assay, Rn00595020_ml; Applied Biosystems; Foster City, Calif.). […] The relative quantity of mRNA was calculated by relating the PCR threshold cycle obtained from the tested samples to relative standard curves degenerated from a serial dilution of cDNA prepared from the total RNA. The POMC mRNA level in each sample was normalized with the level of GAPDH mRNA which was measured by a control reagent (PerkinElmer Applied Biosystems). […]

[2] = system: rat hypothalamic neuronal stem cells (NSCs); experiment: Differentiation of hypothalamic neuronal stem cells to BEP neurons in culture; format: cell-based; details: agent alone, 0.1-10 μM
Method: Fetal brains were obtained from 17-day-old pregnant rats (Simonsen laboratories; Gilroy, […].). Mediobasal hypothalamic tissues from these rats were dissected out and cells from these tissues were dissociated, and mixed hypothalamic cell cultures were prepared as previously described (De et al. (1994) J. Biol. Chem., 269:26697-26705). Neurons were separated from glial cells by filtering mixed hypothalamic cells through a 48-μM nylon mesh. Then hypothalamic cells were sedimented at 400 g for 10 minutes; pellets were re-suspended in HEPES-buffered Dulbecco's Modified Eagle's Medium (HDMEM, 4.5 g/l glucose; Sigma, St. Louis, Mo.); and cells were cultured into poly-ornithine coated 25-cm^2 tissue culture flasks (2.5 million cells/flask) in HDMEM-containing 10% fetal bovine serum (FBS) and 1% penicillin/streptomycin. On day 2, the culture medium was replaced with HDMEM containing 10% FBS, 33.6 μg/ml uridine and 13.6 μg/ml 5-fluodeoxyuridine to prevent the overgrowth of astroglial cells. All of these chemicals were obtained from Sigma. On day 3, the culture medium was replaced with HDMEM-containing serum supplement (30 nM selenium, 20 nM progesterone, 1 μM iron-free human transferrin, 5 μM insulin, and 100 μM putrescin) and 1% penicillin/streptomycin. […] By this time, these cultures were approximately 85-90% neurons, as determined by MAP-2 positivity. […]

Compound	PBMC NK cell activity (MADB106 cells)	macrophage migration activity (MADB106 cells)	effect on β-EP elimination of tumor cell lung retention (MADB106 cells)	effect on neurosphere differentiation [2]	other results
CCN1C[C@]2(COC(=O)c3ccccc3N3C(=O)C[C@H](C)C3=O)CC[C@H](OC)[C@@]34[C@@H]5C[C@H]6[C@H](OC)[C@@H]5[C@](O)(C[C@@H]6OC)[C@@](O)([C@@H](OC)[C@H]23)[C@@H]14 [MLA, Methyllycaconitine]	reversed the effect of β-EP; also recorded: moderate or strong inhibitory effect	reversed the effect of β-EP; also recorded: moderate or strong inhibitory effect	stopped the effect of β-EP; also recorded: prevented, at various degrees	–	–
CC(C)NCC(O)c1cc(O)cc(O)c1 (stereo not drawn) [MP, Metaproterenol]	reversed the effect of β-EP	reversed the effect of β-EP	stopped the effect of β-EP	–	PBMC NK cell activity (MADB106 cells; listed as MET): moderate or strong inhibitory effect; macrophage migration activity (MADB106 cells; listed as MET): moderate or strong inhibitory effect; effect on β-EP elimination of tumor cell lung retention (MADB106 cells; listed as MET): prevented, at various degrees
CCCCC[C@H](O)/C=C/[C@H]1[C@H](O)CC(=O)[C@@H]1CCCCCCC(=O)O [PGE1, prostaglandin E1]	–	–	–	–	BEP release ([1]; cells at 1 week): only moderately enhanced; POMC expression ([1]; cells at 1 week): no effect; BEP-release response ([1]; cells at 2 weeks): significantly increased; POMC-expression response ([1]; cells at 2 weeks): significantly increased
CCCC(=O)Nc1ncnc2c1ncn2[C@@H]1O[C@@H]2COP(=O)(O)O[C@H]2[C@H]1OC(=O)CCC [dbcAMP, dibutyryl cAMP]	–	–	–	moderate effect	–
pituitary adenylate cyclase-activating peptide [PACAP]	–	–	–	moderate effect	–
